Test results: patent publication US8814837B2, “Simple device for treating tinea unguium” (priority 2008, dated 2014)
“And” between values parts separate entries of the source, which are not always exact repeats. Equal entries are not always repeated. Structures can show the parent of a compound that is named as a salt.

How the values were obtained:
Format in all cases: in vivo
[1] = Terbinafine hydrochloride content in the nail tip after the dome-shaped applicator was bonded to the nail; conditions: 0.15 mL of 1% solution, two days; for terbinafine hydrochloride content in the nail: nail tip, individual samples No. 1-6; for concentration at 2 days: nail (tip), topical, 1% solution, average of No. 1-6
Procedure: The dome-shaped applicator of the first type as shown in FIG. 2 (inside volume: 0.15 mL) was used. A commercially available instantaneous adhesive agent (cyanoacrylate-based adhesive) was applied to the flange of the applicator for bonding. The flange was then hermetically bonded to a surface of a nail. Using a syringe (inside volume: 0.5 mL), 0.15 mL of a solution having a terbinafine hydrochloride content of 1% was injected through the feed port. The feed port was then opened so that the inside and outside of the applicator was in fluid communication with each other. Thus, the inside air was released and the inside of the dome-shaped applicator reached ambient pressure (1.0 atm.). The applicator was maintained as such for two days and then removed from the nail. A part of the tip of the nail was cut and measured for the concentration of the terbinafine hydrochloride.
(§1) The dome-shaped applicator of the second type as shown in FIG. 8 (inside volume: 0.15 mL) was used. A commercially available instantaneous adhesive agent (cyanoacrylate-based adhesive) was applied to the flange of the applicator for bonding. The flange was then hermetically bonded to a surface of a nail. Using a syringe (inside volume: 0.5 mL), 0.15 mL of a solution having a terbinafine hydrochloride content of 1% was injected through the thick film portion near the opening of the dome-shaped applicator.
Because the dome-shaped applicator was hermetically bonded to the nail, the thin film portion in the upper part thereof inflated. […] The dome-shaped applicator was maintained in the hermetically bonded state for two days and then removed from the nail. A part of the tip of the nail was cut and measured for the concentration of the terbinafine hydrochloride.
as §1, with “the third” for “the second”, “FIG. 15” for “FIG. 8”, “0.15 ml.)” for “0.15 mL)”, “applicator. Because the dome-shaped applicator was hermetically bonded to the nail, the thin film portion in the upper part thereof was inverted and protruded as shown in FIG. 15(B).” for “applicator.”
The dome-shaped applicator was maintained in the hermetically bonded state for two days and then removed from the nail. A part of the tip of the nail was cut and measured for the concentration of the terbinafine hydrochloride.

[2] = Terbinafine hydrochloride content in the nail after applying a 1% external medicine to the nail surface; conditions: 1% external medicine applied to nail surface twice a day for 4 weeks
Excerpt: Incidentally, a 1% terbinafine hydrochloride external medicine was applied to a surface of a nail twice a day continuously for 4 weeks. A part of the tip of the nail was then cut and measured for the concentration of the terbinafine hydrochloride.

[3] = Terbinafine hydrochloride content in the nail tip after oral administration of a terbinafine hydrochloride tablet
Procedure: As conventionally used as a treatment method for tinea unguium, a terbinafine hydrochloride tablet was orally administered once a day continuously for 4 weeks. A part of the tip of the nail was then cut and measured for the concentration of the terbinafine hydrochloride in the same manner as in Examples 1 to 3.
In Comparative Example 1, the measurement of terbinafine hydrochloride was carried out after administration period of 4 weeks, because the terbinafine hydrochloride was not detected after administration of 2 days.

## CN(C/C=C/C#CC(C)(C)C)Cc1cccc2ccccc12 [terbinafine hydrochloride]
[1]; Example 1: first-type applicator, ambient pressure (1.0 atm)
  terbinafine hydrochloride content in the nail: 27.0 ng/mg and 40.8 ng/mg and 67.6 ng/mg and 42.9 ng/mg and 52.0 ng/mg and 32.4 ng/mg
[1]; Example 2: second-type applicator, inside pressure 1.3 atm
  terbinafine hydrochloride content in the nail: 43.7 ng/mg and 66.1 ng/mg and 88.8 ng/mg and 68.6 ng/mg and 104.9 ng/mg and 38.9 ng/mg
[1]; Example 3: third-type applicator, inside pressure 1.3 atm
  terbinafine hydrochloride content in the nail: 41.5 ng/mg and 67.2 ng/mg and 86.3 ng/mg and 70.2 ng/mg and 75.8 ng/mg and 42.3 ng/mg
[1]; Example 1: first-type applicator, 1.0 atm
  concentration at 2 days: 43800 ng/g
[1]; Example 2: second-type applicator, 1.3 atm
  concentration at 2 days: 68500 ng/g
[1]; Example 3: third-type applicator, 1.3 atm
  concentration at 2 days: 63900 ng/g
[2]
  penetration of terbinafine hydrochloride into a surface region of the nail: slightly penetrate
  terbinafine hydrochloride detected in a deep part of the nail: Almost no terbinafine hydrochloride was detected
[3]; Comparative Example 1: tablet orally once a day for 4 weeks, nail tip, individual samples No. 1-6, hydrochloride
  terbinafine hydrochloride content in the nail: 0.24 ng/mg and 0.38 ng/mg and 0.15 ng/mg and 0.28 ng/mg and 0.45 ng/mg and 0.11 ng/mg
[3]; human, nail (tip), po, Comparative Example 1: tablet orally once a day for 4 weeks, average of No. 1-6
  concentration at 4 weeks: 380 ng/g
[3]; oral tablet, after administration of 2 days
  terbinafine hydrochloride detected in the nail: not detected
